# Assay results published in PubChem BioAssay AID1850 (Southern Research Specialized Biocontainment Screening …, 2009).
# pIC50: −log10 of the molar value. Several values for one entry are separate records, joined by “and”; a condition that tells them apart may be missing. Equal entries are not always repeated.
# Tested on: Salmonella Typhi PhoP-promoter GFP reporter, fluorescence, 4 h
# Assay: PhoP regulon inhibitors, Salmonella typhi PhoP promoter GFP reporter, confirmatory (AID 1850)
row,Compound,pIC50
1,Oc1c(Br)cc(Br)cc1C=NCc1ccc(F)cc1,4.24
2,OC(CN1CCCCC1)Cn1c2ccccc2c2cc(Br)ccc21 (centres undefined),4.16
3,Oc1ccccc1-c1cc(C(F)(F)C(F)F)[nH]n1,4.10
4,CC/C(=N\Nc1ccnc2cc(Cl)ccc12)c1ccc(O)cc1,4.29
5,CCn1nnc(NC(=O)c2ccc([N+](=O)[O-])o2)n1,4.28
6,Nc1ncncc1-c1ccc(Cl)cc1,3.84
7,CN(C)CC/C=C1/c2ccccc2Sc2ccc(Cl)cc21,4.31
8,Oc1[nH]c2ccc(Br)cc2c1N=NC(=S)N1CCOCC1,4.44
9,COc1ccc(N2CC(C(=O)N/N=C/c3cc([N+](=O)[O-])ccc3O)CC2=O)cc1 (centres undefined),3.87
10,CCCCNCCCOc1cccc(Cl)c1Cl,3.83
11,NC1=NC[C@@H](Cc2ccc(O)cc2)N1CCCCC1CCCCC1,4.86
12,CNC[C@@H](CC1CCCCC1)NC[C@H](CC(C)C)NCCc1cccc(C(F)(F)F)c1,4.70
13,COc1ccc(/C=C/C(=O)NC(=S)NNC(=O)c2cnccn2)cc1,4.30
14,COCCCNC(=S)NNC(=O)c1ccccn1,4.43
15,CC1(C)N=C(N)NC(Nc2ccc(Br)cc2)=N1,4.41
16,Cc1cc(N/N=C/c2ccc(F)cc2)nc(NCc2ccccc2)n1,4.26
17,CN(C)CCOCCOc1ccc(Cl)c2ccccc12,3.99
18,NC1=C(Br)C(=O)c2ccccc2C1=O,4.59
19,Cc1ccc(OCC(O)Cn2c(=N)n(CCN3CCCCC3)c3ccccc32)cc1 (centres undefined),3.95
20,S=C(Nc1ccc(Cl)c(Cl)c1)NC1CCN(Cc2ccccc2)CC1,4.47
21,Cc1ccc(C(=O)N/N=C\c2ccc([N+](=O)[O-])s2)cn1,4.73
22,COc1ccc(Nc2cc(C)nc(NCc3ccccc3)n2)cc1,4.13

row,Compound,pIC50
1,Cc1cc(C)c2sc(N(CCCN(C)C)C(=O)COc3ccc(Cl)cc3)nc2c1,4.51
2,CN1CCN(Cc2cc(COCc3ccccc3)c3cccnc3c2O)CC1,4.43
3,CCN(CC)CCn1c(=N)n(CC(O)COc2cccc(C)c2)c2ccccc21 (centres undefined),3.87
4,Nc1nnc(-c2cccc(Cl)c2Cl)c(N)n1,4.18
5,C1=C(CCNCc2ccccc2)CCCC1,5.20
6,CNC(CC(=O)c1ccc([N+](=O)[O-])cc1)C(Cl)(Cl)Cl (centres undefined),4.02
7,COc1ccc(Nc2c3c(nc4ccccc24)CCC3)cc1,4.13
8,N/C(=N\OS(=O)(=O)c1ccc(Cl)cc1)c1cccnc1,4.58
9,CCc1cccc2c(C(=O)COC(=O)c3ccc([N+](=O)[O-])s3)c[nH]c12,4.73
10,C/C(=N\N=C(N)N)c1ccc(Cl)c(Cl)c1,4.11
11,CCCCCCCCCCCCCCCC[n+]1cccc(C(=O)N(CC)CC)c1,4.38
12,Cc1ccc(-n2c(-c3ccc(Br)cc3)c[n+]3c2CCc2ccc4cccnc4c2-3)cc1,4.21
13,CCOC(=O)C1=C(O)c2ccccc2C(=O)/C1=C\c1ccc(C)cc1,3.85
14,c1ccc(Nc2ccnc(Nc3ccccc3)n2)cc1,4.47
15,CCn1cc(C(=O)O)c(=O)c2cc(F)c(N3CCNCC3)cc21,6.57
16,CN(C)CC/C=C1/c2cc(F)ccc2Sc2ccc(Cl)cc21,4.18
17,CCc1cccc(NC(=O)CSC2=NS(=O)(=O)c3ccccc32)c1,4.43
18,Cc1cccc(Nc2c3c(nc4ccccc24)CCC3)c1,4.46
19,CCCCCCCC(=O)N/N=C/c1ccc([N+](=O)[O-])o1,4.57
20,CC(C)(C)c1ccc(OCCCNC2CCCC2)cc1,4.08
21,CCCCCCCCCCCCCCCC[n+]1ccc(/C=N/O)cc1,4.58
22,CCCCn1c(NS(=O)(=O)c2ccccc2)c(S(=O)(=O)c2ccc(C)cc2)c2nc3ccccc3nc21,5.22

row,Compound,pIC50
1,CN1CC(C(=O)c2ccc(Cl)cc2)C(c2ccc(Cl)cc2Cl)C1 (centres undefined),4.43
2,Cc1ccc(C)c(NC(=O)c2ccccc2O)c1,4.12
3,C=CC1=C(C(=O)O)N2C(=O)[C@@H](NC(=O)/C(=N\O)c3csc(N)n3)[C@H]2SC1 (stereo in doubt),4.72
4,O=C(N/N=C/c1ccc([N+](=O)[O-])s1)C(O)c1ccccc1 (centres undefined),4.40
5,Cc1ccc(Cn2c(=N)n(CC(O)COc3ccccc3)c3ccccc32)cc1 (centres undefined),4.28
6,CN1CCN(C(c2ccc(Br)cc2)c2cc(Cl)c3cccnc3c2O)CC1 (centres undefined),4.17
7,c1cnc2c(c1)ccc1cccnc12,4.31 and 4.41
8,Cc1ccc2c(c1)C1CN(C)CCC1N2Sc1ccccc1[N+](=O)[O-] (centres undefined),4.36
9,CO[C@@]1(NC(=O)Cc2cccs2)C(=O)N2C(C(=O)O)=C(COC(N)=O)CS[C@@H]21,5.03
10,CCCCCc1ccc(OCCCC[n+]2cccc(C)c2)c(CCCCC)c1,4.23
11,CCN1CCN(C(=O)c2cc3cc(F)ccc3[nH]2)CC1,3.99
12,C/C(=C\C(=O)OCCCCCCCCC(=O)O)C[C@@H]1OC[C@H](C[C@@H]2O[C@H]2[C@@H](C)[C@H](C)O)[C@@H](O)[C@H]1O,4.88
13,CC(=O)OC1=C(O)C(=O)c2ccccc2C1=O,3.85
14,CC1(C)N=C(N)N=C(N)N1c1ccc(Oc2ccc(Cl)cc2)c(Cl)c1,4.47
15,O=C(Nc1csc(Cl)c1)c1ccccc1,4.60
16,CN1CCN(C2=Cc3ccccc3Sc3cc(F)ccc32)CC1,4.18
17,Cc1ccc(C(=O)O)cc1N=Cc1cc(Br)cc(Br)c1O,4.56
18,CN1CCC(OC(=O)c2ccc(Cl)cc2Cl)CC1,3.83
19,Cc1ccc2nc(/C(C#N)=C\c3ccc([N+](=O)[O-])o3)[nH]c2c1,4.00
20,COc1ccc(CNc2ncnc3c2[nH]c2ccccc23)cc1,4.07
21,O=C(NCCCN1CCN(c2ccc(F)cc2)CC1)Nc1ccc([N+](=O)[O-])cc1,4.12
22,O=C1c2ccccc2NC(c2ccc(-c3ccc(Br)cc3)o2)N1O (centres undefined),4.45

row,Compound,pIC50
1,CC1(CC(=O)N/N=C/c2cc([N+](=O)[O-])c(O)cc2O)OCCO1,4.11
2,O=[N+]([O-])c1cc(O)c2ncccc2c1,4.85
3,Nc1c(Cl)ncnc1N/N=C/c1ccccn1,4.47
4,C#CCOCCOCCOCCNc1nc(N2CCN(C(=O)CCCCCCCCCCNC(=O)[C@H]([C@@H](C)CC)n3cc(CCCCN=C(N)N)nn3)CC2)nc(N2CCN(C(=O)CCCCCCCCCCNC(=O)[C@H](CCCCN)n3cc(C)nn3)CC2)n1,4.45
5,O=C(CCN1CCN(c2ccccc2F)CC1)c1ccc(Br)cc1,4.41
6,CN1CC=C(/C=C/c2ccc(-c3ccccc3)cc2)CC1,4.22
7,O=C(O)c1cn(-c2ccc(F)cc2)c2cc(Cl)c(F)cc2c1=O,4.08
8,O=C(CCN1CCN(c2ccccc2)CC1)c1ccc(Br)cc1,3.98
9,OC1CCCN(Cc2ccc3ccc4cccc5ccc2c3c45)C1 (centres undefined),4.10
10,Nc1c2ccccc2nc2ccccc12,4.43
11,CCOC(=O)N1CCN(CCC(=O)c2ccc(Br)cc2)CC1,4.02
12,C(=N/Nc1nccs1)/c1cccnc1,4.33
13,CCCOc1ccc(C(=O)NNC(=S)NC(=O)c2ccco2)cc1,4.13
14,CCCC(=O)NC(c1ccco1)c1cc([N+](=O)[O-])c2cccnc2c1O (centres undefined),4.41
15,CN(C)c1ccc(O)c2c1CC1CC3[C@@H](N(C)C)C(=O)C(C(N)=O)=C(O)[C@]3(O)C(=O)C1=C2O (some centres undefined),5.05
16,O=[N+]([O-])c1cc([N+](=O)[O-])c2cccnc2c1Oc1ccccc1O,4.09
17,CCn1cc(C(=O)O)c(=O)c2cc3c(cc21)OCO3,4.36
18,C#CCOCCOCCOCCNc1nc(N2CCN(C(=O)C(Cc3ccc(O)cc3)n3cc(C(N)CC(C)C)nn3)CC2)nc(N2CCN(C(=O)C(Cc3cc4ccccc4[nH]3)n3cc(C(N)Cc4ccc(O)cc4)nn3)CC2)n1 (centres undefined),3.89
19,OCCN1CCN(C2Cc3cc(Cl)ccc3Sc3ccc(Cl)cc32)CC1 (centres undefined) (tested in a mixture with another compound),4.46
20,CCn1cc(C(=O)O)c(=O)c2cc(F)c(N3CCN(C(=S)NC(=O)c4cccc(C)c4)CC3)cc21,4.80
21,Nc1nc(Nc2ccc(Cl)cc2)nc2ccccc12,4.82
22,O=C(Cn1nc(C(F)F)cc1C(F)F)NNC(=S)Nc1ccc([N+](=O)[O-])cc1,3.86

row,Compound,pIC50
1,O=C(N/N=C/c1cc(Cl)cc(Cl)c1O)c1ccncc1,4.45
2,O=C(N/N=C/c1c(O)ccc2ccccc12)c1ccc(CO)nc1,4.06
3,O=C(CNCCC1=CCCCC1)Nc1ccc(N2CCCCCC2)cc1,4.53
4,CCOc1cc(CNCCCN2CCOCC2)cc(Br)c1OCC(=O)Nc1cccc(C(F)(F)F)c1,4.07
5,Cc1ncc(CC(=O)n2cc(C(=O)c3cc(Cl)ccc3O)cn2)s1,4.08
6,C#CCOCCOCCOCCNc1nc(N2CCN(C(=O)[C@H]([C@@H](C)CC)n3cc([C@@H](N)Cc4ccc(O)cc4)nn3)CC2)nc(N2CCN(C(=O)[C@H](Cc3cc4ccccc4[nH]3)n3cc([C@@H](N)CC(C)C)nn3)CC2)n1,3.99
7,COC(=O)C(C)NC(=S)N1CCN(c2c(F)cc3c(=O)c(C(=O)O)cn(C4CC4)c3c2OC)CC1C (centres undefined),4.77
8,Cc1ccc2nc(N(CCCN(C)C)C(=O)c3ccc4c(c3)CCCC4)sc2c1,4.39
9,C#CCOCCOCCOCCNc1nc(N2CCN(C(=O)CCCCCCCCCCNC(=O)[C@H](CCCCN)n3cc(C)nn3)CC2)nc(N2CCN(C(=O)CCCCCCCCCCNC(=O)[C@H](CCCN=C(N)N)n3cc(C[C@@H](C)CC)nn3)CC2)n1,4.49
10,Cc1ccc(C(=O)N2C(=S)C(c3ccc(F)cc3)=NC23CCN(C)CC3)cc1,3.93
11,CSc1ccc2c(c1)N(CCC1CCCCN1C)c1ccccc1S2 (centres undefined),4.13
12,COc1ccc(C2NCCc3c2[nH]c2ccccc32)cc1COc1ccc(F)cc1 (centres undefined),4.41
13,Nc1nc(F)nc2c1ncn2[C@@H]1O[C@H](CO)[C@@H](O)[C@H]1O,4.48
14,CC[C@@H](C)[C@H](CNC)NC[C@@H](Cc1cccc2ccccc12)NCCc1cccc(C(F)(F)F)c1,4.70
15,CC[n+]1c(/C=C/C=C/c2ccc(N(C)C)cc2)sc2ccccc21,4.41
16,CO[C@H]1C=CO[C@@]2(C)Oc3c(C)c(O)c4c(O)c(c(C=NN5CCN(C)CC5)c(O)c4c3C2=O)NC(=O)C(C)=CC=C[C@H](C)[C@H](O)[C@@H](C)[C@@H](O)[C@@H](C)[C@H](OC(C)=O)[C@@H]1C,4.68
17,CN(Cc1ccccc1)CC(O)COc1ccc(CNCc2ccc(Cl)s2)cc1 (centres undefined),3.91
18,Cc1cc(N/N=C/c2ccc(O)cc2)c2cccc(C)c2n1,4.40
19,CNCCC=C1c2ccccc2CCc2ccccc21,3.86
20,NC(N)=N/N=C/c1ccc(OCc2ccccc2Cl)cc1,4.51
21,CCn1cc(C(=O)O)c(=O)c2cc(F)c(N3CCN(C(=O)Nc4ccccc4)CC3)cc21,4.63
